Series [1] has as its target T1, Beta-2 adrenergic receptor (Homo sapiens, UniProt P07550). Description: Displacement of radiolabeled iodocyanopindolol from recombinant beta2 adrenoceptor.
In series [2] the target is T1, Beta-2 adrenergic receptor. Description: Agonist activity at human beta2 adrenoceptor expressed in H292 cells assessed as increase in cAMP accumulation after 60 mins by spectrophotometry. It counts as functional, cell-based.
Series [3] has as its target Beta-1 adrenergic receptor (Homo sapiens, UniProt P08588). The experiment in a line: Displacement of radiolabeled iodocyanopindolol from beta1 adrenoceptor.
Series [4] concerns the target D(2) dopamine receptor (Homo sapiens, UniProt P14416). The experiment in a line: Displacement of radiolabeled spiperone from dopamine D2 receptor.
The target in series [5] is T2, Alpha-1D adrenergic receptor (Homo sapiens, UniProt P25100).
T2 sequence (P25100 whole entry): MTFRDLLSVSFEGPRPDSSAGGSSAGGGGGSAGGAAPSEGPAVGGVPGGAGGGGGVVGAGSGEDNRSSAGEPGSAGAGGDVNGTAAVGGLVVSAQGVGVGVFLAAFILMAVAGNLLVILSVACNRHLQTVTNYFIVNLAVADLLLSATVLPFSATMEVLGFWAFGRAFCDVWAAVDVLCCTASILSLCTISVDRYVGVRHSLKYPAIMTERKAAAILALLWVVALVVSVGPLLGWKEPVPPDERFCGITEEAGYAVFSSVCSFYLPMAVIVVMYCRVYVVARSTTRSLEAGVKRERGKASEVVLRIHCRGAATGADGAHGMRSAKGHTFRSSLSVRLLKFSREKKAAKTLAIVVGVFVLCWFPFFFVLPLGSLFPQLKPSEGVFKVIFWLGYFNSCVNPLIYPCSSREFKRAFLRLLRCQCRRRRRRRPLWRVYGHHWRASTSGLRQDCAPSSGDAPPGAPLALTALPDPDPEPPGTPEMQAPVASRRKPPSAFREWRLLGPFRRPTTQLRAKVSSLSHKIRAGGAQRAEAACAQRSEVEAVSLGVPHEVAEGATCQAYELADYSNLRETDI
The experiment in a line: Displacement of radiolabeled Prazosin from alpha1D adrenoceptor.

Series [6] can be described thus: physchem. As to conditions: 1-octanol/aqueous buffer, pH 7.4.

Bounds are passed on as bounds.

Chain of Beta-1 adrenergic receptor (P08588 whole entry): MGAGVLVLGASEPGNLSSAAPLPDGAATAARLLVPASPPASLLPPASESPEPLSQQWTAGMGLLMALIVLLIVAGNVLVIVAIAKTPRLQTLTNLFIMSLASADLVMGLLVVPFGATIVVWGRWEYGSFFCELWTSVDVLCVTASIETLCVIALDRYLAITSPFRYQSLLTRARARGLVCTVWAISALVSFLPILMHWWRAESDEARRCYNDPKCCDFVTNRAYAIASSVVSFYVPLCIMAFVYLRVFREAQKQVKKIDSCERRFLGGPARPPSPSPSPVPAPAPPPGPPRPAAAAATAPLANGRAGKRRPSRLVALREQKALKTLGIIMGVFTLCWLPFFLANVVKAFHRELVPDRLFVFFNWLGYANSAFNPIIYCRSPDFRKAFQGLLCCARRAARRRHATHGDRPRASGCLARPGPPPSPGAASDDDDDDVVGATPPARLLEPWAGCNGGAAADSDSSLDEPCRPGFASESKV
Chain of D(2) dopamine receptor (P14416 whole entry): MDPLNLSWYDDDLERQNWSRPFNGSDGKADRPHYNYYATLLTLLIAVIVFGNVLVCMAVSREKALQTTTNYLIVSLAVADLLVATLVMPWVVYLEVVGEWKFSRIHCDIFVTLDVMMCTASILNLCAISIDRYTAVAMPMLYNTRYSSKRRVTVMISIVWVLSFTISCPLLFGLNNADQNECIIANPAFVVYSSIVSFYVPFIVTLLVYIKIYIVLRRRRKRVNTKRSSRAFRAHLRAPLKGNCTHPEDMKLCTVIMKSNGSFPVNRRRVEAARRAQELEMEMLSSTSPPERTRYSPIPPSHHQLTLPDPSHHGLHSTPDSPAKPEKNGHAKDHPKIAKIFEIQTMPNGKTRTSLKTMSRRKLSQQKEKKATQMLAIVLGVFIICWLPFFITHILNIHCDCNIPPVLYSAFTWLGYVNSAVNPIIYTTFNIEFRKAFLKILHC
T1 sequence (P07550 whole entry): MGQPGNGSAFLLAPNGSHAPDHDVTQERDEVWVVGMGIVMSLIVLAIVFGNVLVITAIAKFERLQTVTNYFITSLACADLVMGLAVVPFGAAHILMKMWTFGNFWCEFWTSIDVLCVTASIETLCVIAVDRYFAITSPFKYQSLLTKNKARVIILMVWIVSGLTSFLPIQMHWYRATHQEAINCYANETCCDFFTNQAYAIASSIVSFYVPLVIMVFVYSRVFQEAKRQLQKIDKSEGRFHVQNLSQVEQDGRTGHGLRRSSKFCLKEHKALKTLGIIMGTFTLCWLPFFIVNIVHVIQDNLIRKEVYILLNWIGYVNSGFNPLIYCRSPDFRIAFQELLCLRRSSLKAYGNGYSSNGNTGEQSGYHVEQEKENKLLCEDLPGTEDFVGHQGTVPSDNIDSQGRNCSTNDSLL

On to `C[C@@H](NCc1ccccc1-c1ccc(CCNC[C@H](O)c2ccc(O)c3[nH]c(=O)sc23)cc1)c1ccccc1`, for which the 50% inhibitory concentration (IC50) in series [1] was 2 nM. In series [2], the 50% effective concentration (EC50) is 3.98 nM.
Turning to `COc1ccccc1CN(C)Cc1cccc(CCNC[C@H](O)c2ccc(O)c3[nH]c(=O)sc23)c1`, the IC50 in series [3] was 200 nM; in series [1], 25.1 nM; in series [4], 1000 nM; in series [5], 251 nM. Further, the 50% effective concentration (EC50) in series [2] was 3.16 nM. In series [6], this molecule displayed a logD of 1.5.
As for `O=c1[nH]c2c(O)ccc(CCNCCc3ccc(CNCCc4c(Cl)cccc4Cl)cc3)c2s1`, the half-inhibitory concentration (IC50) in series [1] was 501 nM. In addition, in series [2], the EC50 was 100 nM.
`O=c1[nH]c2c(O)ccc([C@@H](O)CNCCc3cccc(CNCCCc4ccccc4)c3)c2s1`: the IC50 in series [3] is 20 nM; in series [1], 0.794 nM; in series [4], 316 nM; in series [5] it was 158 nM. Also, the concentration for a half-maximal effect (EC50) in series [2] is 0.501 nM. Also, the logD in series [6] turned out to be 1.1.
Consider `Cc1cccc2c(CCNCc3cccc(CCNC[C@H](O)c4ccc(O)c5[nH]c(=O)sc45)c3)c[nH]c12`, for which the IC50 in series [3] was 79.4 nM; in series [1], 0.631 nM; in series [4], 398 nM; in series [5], 398 nM. In addition, the half-maximal effective concentration (EC50) in series [2] is 0.316 nM. This molecule showed a logD in series [6] of 1.1.
Regarding `O=c1[nH]c2c(O)ccc(CCNCCc3ccc(CN4CC[C@@H](Oc5ccc(Cl)cc5)C4)cc3)c2s1`, in series [1], the IC50 was 126 nM. In addition, in series [2], the EC50 was 158 nM.
`COc1ccccc1CCNCc1ccc(CCNCCc2ccc(O)c3[nH]c(=O)sc23)cc1`: the IC50 in series [1] is 200 nM.
On to `O=c1[nH]c2c(O)ccc([C@@H](O)CNCCOc3cccc(CNCCc4ccccc4F)c3)c2s1`, for which the IC50 is 200 nM in series [3], 7.94 nM in series [1], 398 nM in series [4] and 25.1 nM in series [5]. In addition, in series [2], the half-maximal effective concentration (EC50) is 2.51 nM. Besides, the log distribution coefficient (logD) in series [6] amounted to 1.9.
As to `O=c1ccc2c([C@@H](O)CNCCc3cccc(CNCCc4ccccn4)c3)ccc(O)c2[nH]1`, the IC50 in series [3] is 3160 nM; in series [1] it was 63.1 nM; in series [4], more than 10000 nM; in series [5], 398 nM. The EC50 in series [2] is 2.51 nM.
Regarding `CC(CNCc1ccc(CCNC[C@H](O)c2ccc(O)c3[nH]c(=O)sc23)cc1)c1ccccc1` (some centres undefined), the IC50 in series [3] is 501 nM; in series [1], 0.2 nM; in series [4], 2510 nM; in series [5] it was 31.6 nM. Further, the EC50 in series [2] was 0.398 nM. Also, in series [6], the logD was found to be 1.2.
Consider `O=c1[nH]c2c(O)ccc(CCNCCc3ccc(CNCCc4ccccn4)cc3)c2s1`, for which, in series [1], the IC50 is 100 nM. Further, in series [2], the EC50 was 158 nM.
Consider `O=c1[nH]c2c(O)ccc(CCNCCc3cccc(CN[C@H]4C[C@@H]4c4ccccc4)c3)c2s1`, for which the IC50 in series [1] is 12.6 nM. Also, in series [2], the concentration giving a half-maximal response (EC50) was 3.98 nM.
With `O=c1[nH]c2c(O)ccc(CCNCCc3ccc(-c4cccc(CN5Cc6ccccc6C5)c4)cc3)c2s1`, the half-inhibitory concentration (IC50) in series [1] was 15.8 nM.
`COc1ccccc1CCNCc1ccc(CCNC[C@H](O)c2ccc(O)c3[nH]c(=O)sc23)cc1`: the IC50 is 316 nM in series [3], 2 nM in series [1], 631 nM in series [4] and 7.94 nM in series [5]. Further, the EC50 in series [2] is 0.316 nM.
With `O=c1[nH]c2c(O)ccc([C@@H](O)CNCCc3cccc(CN4CCC(c5ccccc5)CC4)c3)c2s1`, the IC50 in series [1] is 3.98 nM. Also, in series [2], the half-maximal effective concentration (EC50) was 1 nM.
For `O=c1[nH]c2c(O)ccc([C@@H](O)CNCCc3cccc(CNCc4ccccc4Cl)c3)c2s1`, the 50% inhibitory concentration (IC50) is 10 nM in series [3], 251 nM in series [4] and 158 nM in series [5]. Also, the pH-dependent lipophilicity (logD) in series [6] came to 1.9.
For `COc1ccccc1CNCCc1cccc(CCNC[C@H](O)c2ccc(O)c3[nH]c(=O)sc23)c1`, in that order: 63.1 nM, 1000 nM, 25.1 nM and 0.9.
On to `O=c1[nH]c2c(O)ccc([C@@H](O)CNCCc3ccc(CNCCc4ccccc4)cc3)c2s1`, for which the IC50 in series [3] is 398 nM; in series [1], 2 nM; in series [4] it was 2000 nM; in series [5] it was 12.6 nM. Besides, the EC50 in series [2] is 0.251 nM. This molecule registered a logD in series [6] of 1.1.
`O=c1[nH]c2c(O)ccc([C@@H](O)CNCCc3cccc(CNCc4ccccc4F)c3)c2s1`: the concentration for half-maximal inhibition (IC50) is 6.31 nM in series [3], 1 nM in series [1], 631 nM in series [4] and 79.4 nM in series [5]. Moreover, the EC50 in series [2] is 0.631 nM. This molecule displayed a logD in series [6] of 0.7.
`COCCNCc1ccc(CCNC[C@H](O)c2ccc(O)c3[nH]c(=O)sc23)cc1`: the IC50 is 794 nM in series [3], 316 nM in series [1], more than 10000 nM in series [4] and 631 nM in series [5]. Besides, the half-maximal effective concentration (EC50) in series [2] is 15.8 nM. Moreover, the logD in series [6] was -0.5.
`CCOc1ccccc1CNCc1cccc(CCNC[C@H](O)c2ccc(O)c3[nH]c(=O)sc23)c1`: the IC50 is 100 nM in series [3], 25.1 nM in series [1], 1260 nM in series [4] and 31.6 nM in series [5]. The half-maximal effective concentration (EC50) in series [2] is 3.16 nM.
For the molecule `O=c1[nH]c2c(O)ccc(CCNCCc3cccc(CN4CCC(c5ccccc5)CC4)c3)c2s1`, the concentration for half-maximal inhibition (IC50) in series [1] was 31.6 nM.
Turning to `COc1ccccc1CNCc1ccc(CCNC[C@H](O)c2ccc(O)c3[nH]c(=O)sc23)cc1`, the IC50 in series [3] was 1260 nM; in series [1] it was 126 nM; in series [4], 2510 nM; in series [5], 100 nM. Further, in series [2], the half-maximal effective concentration (EC50) was 3.16 nM. In addition, the logD in series [6] was 0.2.
For the molecule `O=c1[nH]c2c(O)ccc([C@@H](O)CNCCc3ccc(CNCCc4ccccn4)cc3)c2s1`, the values for the IC50 in series [3], in series [4] and in series [5] were more than 794 nM, 2510 nM and 25.1 nM, respectively. Moreover, in series [6], the log distribution coefficient (logD) was -0.3.
Regarding `O=c1[nH]c2c(O)ccc(CCNCCc3cccc(CNCCc4c(Cl)cccc4Cl)c3)c2s1`, the IC50 in series [1] was 0.631 nM.
Regarding `O=c1[nH]c2c(O)ccc(CCNCCc3ccc(CNCCc4ccccc4F)cc3)c2s1`, in series [1], the IC50 was 1260 nM. Further, the 50% effective concentration (EC50) in series [2] is 79.4 nM.
Regarding `O=c1[nH]c2c(O)ccc([C@@H](O)CNCCc3cccc(CNCCCc4ccccn4)c3)c2s1`, the 50% inhibitory concentration (IC50) is 63.1 nM in series [3], 0.501 nM in series [1], more than 2510 nM in series [4] and 251 nM in series [5]. Further, in series [2], the EC50 is 1 nM.
For `COc1cccc(CNCc2cccc(CCNC[C@H](O)c3ccc(O)c4[nH]c(=O)sc34)c2)c1`, the IC50 is 63.1 nM in series [3], 6.31 nM in series [1], 794 nM in series [4] and 100 nM in series [5]. Also, the EC50 in series [2] was 1 nM. Also, the logD in series [6] turned out to be 0.9.
Turning to `O=c1[nH]c2c(O)ccc([C@@H](O)CNCCc3cccc(CNCc4ccccn4)c3)c2s1`, the IC50 in series [3] is 79.4 nM; in series [4], 5010 nM; in series [5] it was 316 nM.
On to `O=c1[nH]c2c(O)ccc([C@@H](O)CNCCCc3cccc(CNCCc4c(Cl)cccc4Cl)c3)c2s1`, for which the IC50 in series [3] was 7.94 nM; in series [1], 6.31 nM; in series [4], 79.4 nM; in series [5], 39.8 nM. The EC50 in series [2] was 1.26 nM.
Take `OCc1cc([C@@H](O)CNCCc2ccc(CNCCc3ccccc3)cc2)ccc1O`: the IC50 in series [3] was more than 3160 nM; in series [1], 631 nM; in series [4] it was more than 7940 nM; in series [5] it was 501 nM. Further, the concentration giving a half-maximal response (EC50) in series [2] was 31.6 nM.
For `O=c1[nH]c2c(O)ccc([C@@H](O)CNCCc3ccc(CN4CCCC4)cc3)c2s1`, the 50% effective concentration (EC50) in series [2] was 39.8 nM.
Regarding `COc1ccccc1CCNCc1cccc(CCNC[C@H](O)c2ccc(O)c3[nH]c(=O)sc23)c1`, the 50% inhibitory concentration (IC50) in series [3] is 251 nM; in series [1], 0.794 nM; in series [4] it was more than 794 nM; in series [5], 79.4 nM. Also, the half-maximal effective concentration (EC50) in series [2] was 0.316 nM. In series [6], this molecule returned a pH-dependent lipophilicity (logD) of 0.8.
Regarding `O=c1[nH]c2c(O)ccc([C@@H](O)CNCCc3ccc(CNCCc4ccccc4F)cc3)c2s1`, the IC50 in series [3] was 398 nM; in series [1] it was 2 nM; in series [4], 2000 nM; in series [5], 50.1 nM. Also, the EC50 in series [2] is 0.398 nM. Moreover, in series [6], the pH-dependent lipophilicity (logD) was 1.3.
Regarding `CC(Cc1cccc(CNCCc2c(Cl)cccc2Cl)c1)NC[C@H](O)c1ccc(O)c2[nH]c(=O)sc12` (some centres undefined), the half-inhibitory concentration (IC50) in series [3] is 20 nM; in series [4] it was 126 nM; in series [5], 39.8 nM. In series [6], this molecule showed a log distribution coefficient (logD) of 2.4.
On to `COc1ccccc1CNCc1ccc(CCNC[C@@H](O)c2ccc(O)c3[nH]c(=O)sc23)cc1`, for which the IC50 was 1260 nM in series [3], 251 nM in series [1], 2000 nM in series [4] and 79.4 nM in series [5]. Also, the EC50 in series [2] is 7.94 nM.
Take `CCN(Cc1ccncc1)Cc1cccc(-c2ccc(CCNCCc3ccc(O)c4[nH]c(=O)sc34)cc2)c1`: the half-maximal inhibitory concentration (IC50) in series [1] is 794 nM. The EC50 in series [2] is 316 nM.
Take `O=c1[nH]c2c(O)ccc([C@@H](O)CNCCc3ccc(-c4cccc(CN5Cc6ccccc6C5)c4)cc3)c2s1`: the half-inhibitory concentration (IC50) in series [1] was 63.1 nM. Also, in series [2], the EC50 was 10 nM.

Values taken from ChEMBL document CHEMBL1944599, “From libraries to candidate: the discovery of new ultra long-acting dibasic β₂-adrenoceptor agonists” (Bioorg Med Chem Lett, 2012).
